# According to patent publication US20140357713A1, “ANTIMICROBIAL COMPOUNDS AND METHODS OF USE” (NexMed Holdings, Inc., priority 2012, published 2014):
# Counter-ions that a name gives are not always drawn.
# Experiments:
# Experiment in all cases: Extended time kill study, Example 34 (0 to 24 h)
# Type in all cases: cell-based
# Pseudomonas aeruginosa = tested on: Pseudomonas aeruginosa
# Method: (§1) Time kill studies. Strain suspensions were prepared as described above for the MIC test, and strain suspensions and compound solutions were mixed in the same volume. Samples were removed at specified times including 0 min, 30 sec, 1 min and 5 mins, were diluted in the test medium and streaked on agar. Colonies were counted after 24 to 48 hrs of incubation.
# (§2) The time kill studies of Example 33 were extended for five compounds (Nex-59, Nex-60, Nex-61, Nex-62, and Nex-88) using the same methods at longer time periods and at higher multiples of MIC. Nex-88 is a code number for DDAIP.HCl from a different supplier.
# Aspergillus niger = tested on: Aspergillus niger
# Method: as §1, §2
# Escherichia coli = tested on: Escherichia coli
# Method: as §1, §2
# Staphylococcus aureus = tested on: Staphylococcus aureus
# Method: as §1, §2
# Candida albicans = tested on: Candida albicans
# Method: as §1, §2
smiles,measurement,setting,value
"CCCCCCCCCCCCOC(=O)C(C)N(C)C (stereo not drawn) [Nex-05, Dodecyl 2-(dimethylamino)propanoate hydrochloride]","Viable counts, Pseudomonas aeruginosa time kill study","Pseudomonas aeruginosa; 1 × MIC, 1 h",<1 Log10 CFU/mL
same,"Viable counts, Pseudomonas aeruginosa time kill study","Pseudomonas aeruginosa; 1 × MIC, 2 h",<1 Log10 CFU/mL
same,"Viable counts, Pseudomonas aeruginosa time kill study","Pseudomonas aeruginosa; 1 × MIC, 4 h",<1 Log10 CFU/mL
same,"Viable counts, Pseudomonas aeruginosa time kill study","Pseudomonas aeruginosa; 1 × MIC, 6 h",<1 Log10 CFU/mL
same,"Viable counts, Pseudomonas aeruginosa time kill study","Pseudomonas aeruginosa; 1 × MIC, 24 h",<1 Log10 CFU/mL
same,"Viable counts, Pseudomonas aeruginosa time kill study","Pseudomonas aeruginosa; 1×MIC, time 0",5.30 Log10 CFU/mL
same,"Viable counts, Pseudomonas aeruginosa time kill study","Pseudomonas aeruginosa; 2 × MIC, 1 h",<1 Log10 CFU/mL
same,"Viable counts, Pseudomonas aeruginosa time kill study","Pseudomonas aeruginosa; 2 × MIC, 2 h",<1 Log10 CFU/mL
same,"Viable counts, Pseudomonas aeruginosa time kill study","Pseudomonas aeruginosa; 2 × MIC, 4 h",<1 Log10 CFU/mL
same,"Viable counts, Pseudomonas aeruginosa time kill study","Pseudomonas aeruginosa; 2 × MIC, 6 h",<1 Log10 CFU/mL
same,"Viable counts, Pseudomonas aeruginosa time kill study","Pseudomonas aeruginosa; 2 × MIC, 24 h",<1 Log10 CFU/mL
same,"Viable counts, Pseudomonas aeruginosa time kill study","Pseudomonas aeruginosa; 2 × MIC, time 0",5.22 Log10 CFU/mL
same,"Viable counts, Pseudomonas aeruginosa time kill study","Pseudomonas aeruginosa; 4 × MIC, 1 h",<1 Log10 CFU/mL
same,"Viable counts, Pseudomonas aeruginosa time kill study","Pseudomonas aeruginosa; 4 × MIC, 2 h",<1 Log10 CFU/mL
same,"Viable counts, Pseudomonas aeruginosa time kill study","Pseudomonas aeruginosa; 4 × MIC, 4 h",<1 Log10 CFU/mL
same,"Viable counts, Pseudomonas aeruginosa time kill study","Pseudomonas aeruginosa; 4 × MIC, 6 h",<1 Log10 CFU/mL
same,"Viable counts, Pseudomonas aeruginosa time kill study","Pseudomonas aeruginosa; 4 × MIC, 24 h",<1 Log10 CFU/mL
same,"Viable counts, Pseudomonas aeruginosa time kill study","Pseudomonas aeruginosa; 4 × MIC, time 0",5.26 Log10 CFU/mL
same,Viable counts in Log10 CFU/mL,"Aspergillus niger; 1 × MIC, 1 h",5.28 Log10 CFU/mL
same,Viable counts in Log10 CFU/mL,"Aspergillus niger; 1 × MIC, 2 h",4.78 Log10 CFU/mL
same,Viable counts in Log10 CFU/mL,"Aspergillus niger; 1 × MIC, 4 h",4.60 Log10 CFU/mL
same,Viable counts in Log10 CFU/mL,"Aspergillus niger; 1 × MIC, 6 h",4.30 Log10 CFU/mL
same,Viable counts in Log10 CFU/mL,"Aspergillus niger; 1 × MIC, 24 h",3.30 Log10 CFU/mL
same,Viable counts in Log10 CFU/mL,"Aspergillus niger; 1 × MIC, 0 h",5.41 Log10 CFU/mL
same,Viable counts in Log10 CFU/mL,"Aspergillus niger; 2 × MIC, 1 h",4.30 Log10 CFU/mL
same,Viable counts in Log10 CFU/mL,"Aspergillus niger; 2 × MIC, 2 h",4.70 Log10 CFU/mL
same,Viable counts in Log10 CFU/mL,"Aspergillus niger; 2 × MIC, 4 h",3 Log10 CFU/mL
same,Viable counts in Log10 CFU/mL,"Aspergillus niger; 2 × MIC, 6 h",4 Log10 CFU/mL
same,Viable counts in Log10 CFU/mL,"Aspergillus niger; 2 × MIC, 24 h",<2 Log10 CFU/mL
same,Viable counts in Log10 CFU/mL,"Aspergillus niger; 2 × MIC, 0 h",5.38 Log10 CFU/mL
same,Viable counts in Log10 CFU/mL,"Aspergillus niger; 4 × MIC, 1 h",4.48 Log10 CFU/mL
same,Viable counts in Log10 CFU/mL,"Aspergillus niger; 4 × MIC, 2 h",4 Log10 CFU/mL
same,Viable counts in Log10 CFU/mL,"Aspergillus niger; 4 × MIC, 4 h",3 Log10 CFU/mL
same,Viable counts in Log10 CFU/mL,"Aspergillus niger; 4 × MIC, 6 h",4 Log10 CFU/mL
same,Viable counts in Log10 CFU/mL,"Aspergillus niger; 4 × MIC, 24 h",<2 Log10 CFU/mL
same,Viable counts in Log10 CFU/mL,"Aspergillus niger; 4 × MIC, 0 h",5.50 Log10 CFU/mL
same,"Viable counts, Escherichia coli time kill study","Escherichia coli; 1 × MIC, 1 h",<1 Log10 CFU/mL
same,"Viable counts, Escherichia coli time kill study","Escherichia coli; 1 × MIC, 2 h",<1 Log10 CFU/mL
same,"Viable counts, Escherichia coli time kill study","Escherichia coli; 1 × MIC, 4 h",<1 Log10 CFU/mL
same,"Viable counts, Escherichia coli time kill study","Escherichia coli; 1 × MIC, 6 h",<1 Log10 CFU/mL
same,"Viable counts, Escherichia coli time kill study","Escherichia coli; 1 × MIC, 24 h",<1 Log10 CFU/mL
same,"Viable counts, Escherichia coli time kill study","Escherichia coli; 1×MIC, time 0",5.10 Log10 CFU/mL
same,"Viable counts, Escherichia coli time kill study","Escherichia coli; 2 × MIC, 1 h",<1 Log10 CFU/mL
same,"Viable counts, Escherichia coli time kill study","Escherichia coli; 2 × MIC, 2 h",<1 Log10 CFU/mL
same,"Viable counts, Escherichia coli time kill study","Escherichia coli; 2 × MIC, 4 h",<1 Log10 CFU/mL
same,"Viable counts, Escherichia coli time kill study","Escherichia coli; 2 × MIC, 6 h",<1 Log10 CFU/mL
same,"Viable counts, Escherichia coli time kill study","Escherichia coli; 2 × MIC, 24 h",<1 Log10 CFU/mL
same,"Viable counts, Escherichia coli time kill study","Escherichia coli; 2 × MIC, time 0",5.16 Log10 CFU/mL
same,"Viable counts, Escherichia coli time kill study","Escherichia coli; 4 × MIC, 1 h",<1 Log10 CFU/mL
same,"Viable counts, Escherichia coli time kill study","Escherichia coli; 4 × MIC, 2 h",<1 Log10 CFU/mL
same,"Viable counts, Escherichia coli time kill study","Escherichia coli; 4 × MIC, 4 h",<1 Log10 CFU/mL
same,"Viable counts, Escherichia coli time kill study","Escherichia coli; 4 × MIC, 6 h",<1 Log10 CFU/mL
same,"Viable counts, Escherichia coli time kill study","Escherichia coli; 4 × MIC, 24 h",<1 Log10 CFU/mL
same,"Viable counts, Escherichia coli time kill study","Escherichia coli; 4 × MIC, time 0",5.21 Log10 CFU/mL
same,"Viable counts, Staphylococcus aureus time kill study","Staphylococcus aureus; 1 × MIC, 1 h",<3 Log10 CFU/mL
same,"Viable counts, Staphylococcus aureus time kill study","Staphylococcus aureus; 1 × MIC, 2 h",<3 Log10 CFU/mL
same,"Viable counts, Staphylococcus aureus time kill study","Staphylococcus aureus; 1 × MIC, 4 h",<3 Log10 CFU/mL
same,"Viable counts, Staphylococcus aureus time kill study","Staphylococcus aureus; 1 × MIC, 6 h",<3 Log10 CFU/mL
same,"Viable counts, Staphylococcus aureus time kill study","Staphylococcus aureus; 1 × MIC, 24 h",<1 Log10 CFU/mL
same,"Viable counts, Staphylococcus aureus time kill study","Staphylococcus aureus; 1×MIC, time 0",6.24 Log10 CFU/mL
same,"Viable counts, Staphylococcus aureus time kill study","Staphylococcus aureus; 2 × MIC, 1 h",<3 Log10 CFU/mL
same,"Viable counts, Staphylococcus aureus time kill study","Staphylococcus aureus; 2 × MIC, 2 h",<3 Log10 CFU/mL
same,"Viable counts, Staphylococcus aureus time kill study","Staphylococcus aureus; 2 × MIC, 4 h",<3 Log10 CFU/mL
same,"Viable counts, Staphylococcus aureus time kill study","Staphylococcus aureus; 2 × MIC, 6 h",<3 Log10 CFU/mL
same,"Viable counts, Staphylococcus aureus time kill study","Staphylococcus aureus; 2 × MIC, 24 h",<1 Log10 CFU/mL
same,"Viable counts, Staphylococcus aureus time kill study","Staphylococcus aureus; 2 × MIC, time 0",6.25 Log10 CFU/mL
same,"Viable counts, Staphylococcus aureus time kill study","Staphylococcus aureus; 4 × MIC, 1 h",<3 Log10 CFU/mL
same,"Viable counts, Staphylococcus aureus time kill study","Staphylococcus aureus; 4 × MIC, 2 h",<3 Log10 CFU/mL
same,"Viable counts, Staphylococcus aureus time kill study","Staphylococcus aureus; 4 × MIC, 4 h",<3 Log10 CFU/mL
same,"Viable counts, Staphylococcus aureus time kill study","Staphylococcus aureus; 4 × MIC, 6 h",<3 Log10 CFU/mL
same,"Viable counts, Staphylococcus aureus time kill study","Staphylococcus aureus; 4 × MIC, 24 h",<1 Log10 CFU/mL
same,"Viable counts, Staphylococcus aureus time kill study","Staphylococcus aureus; 4 × MIC, time 0",6.23 Log10 CFU/mL
same,Viable counts in Log10 CFU/mL,"Candida albicans; 1 × MIC, 1 h",5.62 Log10 CFU/mL
same,Viable counts in Log10 CFU/mL,"Candida albicans; 1 × MIC, 2 h",5.60 Log10 CFU/mL
same,Viable counts in Log10 CFU/mL,"Candida albicans; 1 × MIC, 4 h",5.60 Log10 CFU/mL
same,Viable counts in Log10 CFU/mL,"Candida albicans; 1 × MIC, 6 h",6.02 Log10 CFU/mL
same,Viable counts in Log10 CFU/mL,"Candida albicans; 1 × MIC, 24 h",>6 Log10 CFU/mL
same,Viable counts in Log10 CFU/mL,"Candida albicans; 1 × MIC, 0 h",5.82 Log10 CFU/mL
same,Viable counts in Log10 CFU/mL,"Candida albicans; 2 × MIC, 1 h",4.99 Log10 CFU/mL
same,Viable counts in Log10 CFU/mL,"Candida albicans; 2 × MIC, 2 h",4.88 Log10 CFU/mL
same,Viable counts in Log10 CFU/mL,"Candida albicans; 2 × MIC, 4 h",4.62 Log10 CFU/mL
same,Viable counts in Log10 CFU/mL,"Candida albicans; 2 × MIC, 6 h",4.58 Log10 CFU/mL
same,Viable counts in Log10 CFU/mL,"Candida albicans; 2 × MIC, 24 h",2.57 Log10 CFU/mL
same,Viable counts in Log10 CFU/mL,"Candida albicans; 2 × MIC, 0 h",5.81 Log10 CFU/mL
same,Viable counts in Log10 CFU/mL,"Candida albicans; 4 × MIC, 1 h",3.95 Log10 CFU/mL
same,Viable counts in Log10 CFU/mL,"Candida albicans; 4 × MIC, 2 h",3.90 Log10 CFU/mL
same,Viable counts in Log10 CFU/mL,"Candida albicans; 4 × MIC, 4 h",<2.70 Log10 CFU/mL
same,Viable counts in Log10 CFU/mL,"Candida albicans; 4 × MIC, 6 h",<2.70 Log10 CFU/mL
same,Viable counts in Log10 CFU/mL,"Candida albicans; 4 × MIC, 24 h",<1 Log10 CFU/mL
same,Viable counts in Log10 CFU/mL,"Candida albicans; 4 × MIC, 0 h",5.79 Log10 CFU/mL
